Measured values published in article PMC12406664, “New derivatives of 6-nitrocoumarin-3-thiosemicarbazone exhibit improved antiparasitic activity in the placenta against Trypanosoma cruzi and Toxoplasma gondii” (Antimicrobial Agents and Chemotherapy, 2025).
Where two headings read alike, the source gives them in different places.

Key:
[1] = tested on: T. cruzi trypomastigotes, Dm28 strain; experiment: Resazurin viability assay on free T. cruzi trypomastigotes
Description: The reduction of resazurin sodium salt was used to determine the trypanocidal and toxoplasmicidal activity of the 6-nitrocoumarin-thiosemicarbazone hybrids 1–8. For this, treatment with the compounds was carried out for 24 h at a concentration of 100 µM.
NFX was used as a positive control for T. cruzi, and PMN was used for T. gondii. Untreated parasites served as a negative control. […] Subsequently, parasites with their respective conditions were transferred to a 96-well white fluorescence reading plate, adding resazurin at a final concentration of […] with 0.8 mM phenazine. The plate was incubated for 3 hours at 37°C in a humidified atmosphere with 5% CO2, and fluorescence measurements were taken using a microplate reader (Thermo Scientific Varioskan Flash) at excitation wavelengths of 560 nm and emission wavelengths of 590 nm.

[2] = Cyclic voltammetry, reduction potentials in DMSO (HDME, vs. Ag/AgCl); details: 2.00 V/s
Description: Electrochemical studies were carried out on a Metrohm Autolab instrument model PGSTAT204, using dimethyl sulfoxide (DMSO) as the solvent (1 mM solutions), tetrabutylammonium perchlorate (0.1 M TBAP) as the supporting electrolyte, a hanging drop mercury electrode (HDME) as the working electrode, Ag/AgCl (3M KCl) as the reference electrode and a graphite rod as the counter electrode. All measurements were performed after bubbling with nitrogen (N2) for 10 minutes.

[3] = tested on: T. gondii tachyzoites, RH strain; experiment: Resazurin viability assay on free T. gondii tachyzoites; format: cell-based, Toxoplasma gondii; details: Toxoplasma gondii; tachyzoites RH; 100 µM; 24 h
Excerpt: Untreated parasites served as a negative control.

[4] = tested on: intracellular amastigotes of T. cruzi (Tulahuen β-gal); experiment: Intracellular amastigotes, β-galactosidase-expressing T. cruzi in LLC-MK2 cells (CPRG); format: cell-based, Trypanosoma cruzi; details: 72 h
Description: The effect of the compounds over intracellular amastigotes of a β-galactosidase-expressing recombinant strain of T. cruzi (Tulahuen β-gal) was also evaluated (see Table S4 at https://doi.org/10.5281/zenodo.15694236). […] Similarly, intracellular anti-T. gondii tachyzoite was assessed using quantitative immunocytochemistry targeting the parasite’s P30 protein (see Table S4 at https://doi.org/10.5281/zenodo.15694236). […] The complete absence of activity of hydroxylated compounds against intracellular forms of both parasites was confirmed, which could be attributed to their inability to permeate mammalian cell membranes.
LLC-MK2 cells (2 × 10^4/well), suspended in 200 µL DMEM with 10% FBSi and 1% antibiotics (penicillin-streptomycin), were placed in each well of a 96-well plate and incubated for 24 hours. Subsequently, the culture medium was removed, and cell monolayers were infected by placing five trypomastigotes per cell in 200 µL of DMEM 2 for 24 hours under the same incubation conditions. After infection, the culture medium was removed, and cells were washed 4 times with 1× sterile PBS. Finally, 10 twofold serial dilutions (200 µM to 0.39 µM concentration range) of each compound, in DMEM 2 without phenol red, were placed in duplicate wells in a 96-well plate and incubated for 72 hours. […] Absorbance at 600 nm was read 4 hours later, in a multimodal GloMax microplate reader (Promega).

[5] = Lipophilicity by reversed-phase TLC (RM); details: reverse phase-C18, DMSO/phosphate buffer pH 7.4 (70:30 vol/vol), RM = log[(1/Rf) – 1]
Description: Lipophilicity was studied by reversed-phase TLC experiments. Precoated TLC plates SIL RP-18W/UV254 were used and eluted with DMSO/physiological serum (70:30, vol/vol). Stock solutions were prepared in pure DMSO (Aldrich) prior to use. The plates were developed in a closed chromatographic tank, dried, and the spots were located under UV light. The Rf values were averaged from three determinations and converted into RM values via the relationship: RM = log [(1/Rf)−1]

[6] = Cytotoxicity on cells (resazurin), BeWo; format: cell-based; details: human, BeWo trophoblast cells
Excerpt: (§1) Triton X-100 was used as a positive control, and untreated cells served as a negative control. In addition, the maximum concentration of DMSO was used as a control for the method. […] The obtained values were expressed as IC50([88]).

[7] = vs. Ag/AgCl; cited from earlier work
[8] = tested on: T. cruzi (Dm28 strain) in BeWo cells; experiment: Infection of BeWo cells by T. cruzi, infected cells counted by fluorescence microscopy; format: cell-based, Trypanosoma cruzi; details: compound at IC50, untreated control 24 ± 3
Description: The effect of the compounds on the infection of BeWo trophoblast cells by T. gondii and T. cruzi was assessed. The DNA of T. gondii and T. cruzi was quantified in infected BeWo cells treated for 24 hours under two conditions: co-incubation and post-infection treatment. […] Fluorescence microscopy was employed to quantify the number of infected cells. The resulting images were analyzed using ImageJ software to count both infected and uninfected cells.
For the microscopic analysis of BeWo cells infected with T. cruzi, the cells were washed with PBS to remove the supernatant, fixed with 90% cold methanol, rewashed with PBS, and incubated for 5 minutes with 1 µg/mL—1 4,6-diamidino-2-phenylindole (DAPI) (Molecular Probes). To analyze BeWo cells infected with T. gondii, cells were fixed with 90% cold methanol, washed with PBS containing 0.05% Tween, and blocked using 3% BSA for 1 hour at 37°C. Then, they were incubated with the primary monoclonal antibody Toxoplasma gondii (TP3): sc-52255 at a dilution of 1:500 with 1% BSA overnight at 4°C. […] T. cruzi amastigotes were identified by their morphology, including nuclear size and the presence of a kinetoplast, and were analyzed and quantified using ImageJ. At least 500 cells per condition were analyzed, and infected and non-infected cells were counted for every 100 cells ([35], [70]). […]

[9] = tested on: T. cruzi trypomastigotes, Dm28 strain; details: read-out: IC50 T. cruzi; cited from earlier work
[10] = tested on: T. cruzi (Dm28 strain) in HPE; experiment: T. cruzi DNA load in infected human placental explants (HPE) by real-time qPCR; format: cell-based, Trypanosoma cruzi; details: IC50 concentration
Excerpt: Cells or HPE were exposed to parasites. […] The following treatment conditions were used in both infection models.

[11] = tested on: HPE exposed to T. cruzi trypomastigotes; experiment: Histopathology of HPE infected with T. cruzi; format: cell-based, human; details: co-incubation, IC50 concentration
[12] = tested on: human placental explants (HPE); experiment: Histopathology of uninfected HPE exposed to the compounds alone; details: explants incubated only with the compound, 24 h, IC50 concentration
Description: The HPE was fixed in 10% formaldehyde in 0.1 M phosphate buffer (pH 7.3) for 24 h, dehydrated in alcohol, clarified in xylene, embedded in paraffin, and sectioned at 3 µm. Paraffin histological sections were stained with hematoxylin-eosin for routine histological analysis, Picro Sirius red, and trichromic Masson for collagen histochemistry. Sections for the histological analysis were observed under an optical microscope (Leica DM500) and images were captured with a Leica ICC50 W camera ([7], [91]).

[13] = Cytotoxicity on cells (resazurin), EA.hy926; format: cell-based; details: human, EA.hy926 endothelial cells
Excerpt: as §1

[14] = tested on: T. cruzi trypomastigotes (strain Dm28); experiment: ESR spin trapping with DMPO in T. cruzi; format: cell-based, Trypanosoma cruzi; details: compound about 1 mM, menadione 20 µM
Description: (§2) Each tested hybrid was dissolved in spectroscopy-grade DMSO at an approximate concentration of 1 mM and added to a mixture containing Trypanosoma cruzi (Dm28c strain) or Toxoplasma gondii at a density of 50 × 10⁶ trypomastigotes or tachyzoites per mL, along with DMPO at a final concentration of 250 mM. Menadione (20 µM) was used as a positive control.
(§3) All spectra were acquired on the same scale after 15 scans.

[15] = tested on: T. gondii tachyzoites (strain RH); experiment: ESR spin trapping with DMPO in T. gondii; format: cell-based, Toxoplasma gondii; details: compound about 1 mM, menadione 20 µM
Description: as §2, §3

[16] = tested on: T. gondii tachyzoites (strain RH); experiment: Intracellular ROS generation (DCF probe) in T. gondii; format: cell-based, Toxoplasma gondii; details: compound at IC50, menadione 20 µM, 40 minutes, vs untreated control
Description: ROS detection was performed using the 2′,7′-dichlorodihydrofluorescein diacetate (DCFH2-DA) method ([45]). For the assay, Dm28c trypomastigotes and tachyzoites were seeded in 96-well plates at a density of 10⁶ parasites/mL. In contrast, BeWo cells were seeded at 5 × 10⁴ cells per well, using the previously described culture medium.
After incubation with 20 µM DCFH2-DA for 15 minutes at 37°C, the parasites were centrifuged at 3,500 × g, washed twice with PBS (pH 7.4), and subsequently transferred to Nunc 96-well fluorescence plates. Meanwhile, after 24 hours of incubation at 37°C and 5% CO₂, the culture medium of BeWo cells was replaced, and 20 µM DCFH2-DA solution was added, followed by a 15 minute incubation at 37°C. The cells were then washed with PBS at pH 7.4. As a positive control, 20 µM menadione was used, while the negative control consisted of culture medium without compounds.
Over time, the area under the fluorescence increase curve was determined using Origin 8 software (version 9.2), with normalization relative to the control. The results correspond to three independent experiments' mean ± standard deviation (SD).

In the case of `C/C(=N\NC(=S)Nc1ccccc1)c1cc2cc([N+](=O)[O-])ccc2oc1=O` [Compound 8, (E)−2-(1-(6-nitro-2-oxo-2H-chromen-3-yl)ethylidene)-N-phenylhydrazine-1-carbothioamide], the viability at 100 µM ([1]; Trypanosoma cruzi, 24 h, read-out: Viability T. cruzi (%)) is reported as 45.2 ± 6.7%, the “E(pIIa)” value ([2]; anodic peak IIa) is reported as −0.86 V and the “E(pIIIc)” value ([2]; cathodic peak IIIc, hydroxylamine formation) is reported as −1.39 V. The “E(pIIc)” value ([2]; cathodic peak IIc, nitro anion radical couple) was −0.94 V, the “E(pIVc)” value ([2]; cathodic peak IVc, imine reduction) was −1.68 V and the viability at 100 µM [3] was 86.2 ± 14.4%. The “activity over intracellular amastigotes” value [4] was “most active” and the “Lipophilicity (RM)” value [5] was 0.20.

With `CC1CS(=O)(=O)CCN1/N=C/c1ccc([N+](=O)[O-])o1` (stereo not drawn) [NFX, nifurtimox, reference compound] the “SI = BeWo CC50/parasite IC50” value ([1]; parasite T. cruzi) was >30, the “SI = EA.hy926 CC50/parasite IC50” value ([1]; parasite T. cruzi) was 34.9 and the CC50 at 24 h [6] was > 300 µM. For the same compound, the “E(pIIa)” value [7] was −0.70 V, the “E(pIIc)” value [7] was −0.75 V and the “Infected cells (%)” value ([8]; co-incubation 24 h) was 2 ± 1%. For the same compound, the “Infected cells (%)” value ([8]; post-infection treatment 24 h) was 23 ± 4%, the IC50 [9] was 10 ± 0.4 µM and the “effect on parasite DNA load” value ([10]; co-incubation) was “managed to reduce the parasitic load”. The “effect on parasite DNA load” value ([10]; post-infection treatment) was “no statistically significant activity”, the “tissue damage in infected HPE (histopathology)” value [11] was “caused tissue damage” and the “tissue damage caused by the compound itself in HPE” value [12] was “caused tissue damage”. It also gave a CC50 at 24 h [13] of 348.5 ± 1.2 µM.

In the case of `CC1=CC(=O)c2ccccc2C1=O` [menadione, reference compound], the “radical species detected by ESR spin trapping (DMPO)” value [14] is reported as “triplet (aN ~15.5 G) corresponding to a DMPO-derived oxidized paramagnetic compound”, the “radical species detected by ESR spin trapping (DMPO)” value [15] is reported as “formation of multiple signals” and the “ROS generation (DCF fluorescence)” value [16] is reported as “significant increase in ROS production”.
